Measured values published in patent US5750362A, “Methods for identifying substances with a potential herbicidal or growth-regulating action by means of plant transporter proteins, the use of the transporter proteins, and substances with a herbicidal and growth-regulating action” (BASF Aktiengesellschaft, priority 1993, dated 1998).
Like-named read-outs stand apart in the source and are kept apart here. Each block holds one compound with its values, some of them ahead of it.

Columns and labels:
[1] = target: T1, sucrose transporter S21 (SoSUT1) (Spinacia oleracea, UniProt Q03411); assay: [14C]-sucrose uptake by yeast strain SUSY7 expressing the spinach sucrose transporter; format: cell-based; details: [14C]-sucrose uptake, pH 3.8; for remaining activity at 2000 µM / remaining activity at 1000 µM: read-out: Activity relative to the control [%]; for remaining activity at 1000 µM: tested substance 1.0 mmol/l
T1 construct: expressed in transfected cells; host or cells: Saccharomyces cerevisiae SUSY7
T1 sequence (Q03411 1-525): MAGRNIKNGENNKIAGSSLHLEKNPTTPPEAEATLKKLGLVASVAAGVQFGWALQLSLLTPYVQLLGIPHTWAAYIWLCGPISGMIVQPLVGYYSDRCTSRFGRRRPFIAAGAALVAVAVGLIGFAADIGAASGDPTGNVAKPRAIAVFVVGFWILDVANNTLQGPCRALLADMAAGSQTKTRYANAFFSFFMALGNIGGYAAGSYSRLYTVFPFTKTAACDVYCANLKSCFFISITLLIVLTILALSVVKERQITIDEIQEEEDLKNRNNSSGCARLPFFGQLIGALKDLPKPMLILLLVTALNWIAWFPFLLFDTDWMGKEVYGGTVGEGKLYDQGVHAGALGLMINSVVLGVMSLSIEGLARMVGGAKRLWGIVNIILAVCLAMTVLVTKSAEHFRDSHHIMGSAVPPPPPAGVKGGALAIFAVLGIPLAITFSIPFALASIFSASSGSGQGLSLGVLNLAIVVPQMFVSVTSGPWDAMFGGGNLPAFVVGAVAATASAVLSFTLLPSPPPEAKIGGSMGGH
Protocol: Yeast cells of the strain SUSY7 (Riesmeier et al., 1992, EMBO J. 11: 4705-4713) are used to identify substances which have an inhibitory effect on sucrose transporters from spinach. Cells of this strain are transformed with a cDNA sequence which codes for the sucrose transporter S21 (SoSUT1) from spinach and which ensures expression of a functional transporter in the cells. The yeast cells are cultured in minimal medium (SD+2% (w/v) sucrose, pH 3.8) at 28° C. and harvested in the logarithmic phase (OD600 =0.6). The cells are spun down at 4000 rpm for 10 minutes and washed twice with SD medium. A cell concentration of c=50 g/l in SD medium is adjusted according to the wet weight of the cells, and 200 μl aliquot fractions are taken. Before the actual reaction, the cells are incubated in 10 mM glucose for 5 min and adjusted to pH 3.8 with MES buffer. The reaction is started by adding 200 μl of a 0.2 mmol/l [14C]-sucrose solution (3 mCi/mmol) in SD medium (pH 3.8). After 20, 60, 120, 180 and 240 seconds, 70 μl portions of the suspension are removed and pipetted into 4 ml of ice-cold water in order to stop the reaction. The cells are filtered off on glass fiber filters and washed twice with ice-cold water. The radioactivity on the filters is subsequently determined in a liquid scintillation counter. The substances to be tested are added 30 seconds before addition of the sucrose. The uptake of radiolabeled sucrose without addition of a potential inhibitor is determined as one control. Cells of the strain SUSY7 which are not transformed with cDNA sequences coding for a sucrose transporter from spinach are employed as further control.
The various tested substances, their concentration and the activity of the transporter, shown as percentage activity of the control in which no potential inhibitors were added, are indicated. Substances which specifically show an inhibitory effect on the sucrose transporter S21 (SoSUT1), are tested for their herbicidal and growth-regulating effect on whole plants.

[2] = target: T2, ammonium transporter AMT1 (Arabidopsis thaliana, UniProt P54144); assay: cell-based
T2 construct: expressed in transfected cells; host or cells: Saccharomyces cerevisiae 26972c (mutations in MEP1 and MEP2)
T2 sequence (P54144 1-501): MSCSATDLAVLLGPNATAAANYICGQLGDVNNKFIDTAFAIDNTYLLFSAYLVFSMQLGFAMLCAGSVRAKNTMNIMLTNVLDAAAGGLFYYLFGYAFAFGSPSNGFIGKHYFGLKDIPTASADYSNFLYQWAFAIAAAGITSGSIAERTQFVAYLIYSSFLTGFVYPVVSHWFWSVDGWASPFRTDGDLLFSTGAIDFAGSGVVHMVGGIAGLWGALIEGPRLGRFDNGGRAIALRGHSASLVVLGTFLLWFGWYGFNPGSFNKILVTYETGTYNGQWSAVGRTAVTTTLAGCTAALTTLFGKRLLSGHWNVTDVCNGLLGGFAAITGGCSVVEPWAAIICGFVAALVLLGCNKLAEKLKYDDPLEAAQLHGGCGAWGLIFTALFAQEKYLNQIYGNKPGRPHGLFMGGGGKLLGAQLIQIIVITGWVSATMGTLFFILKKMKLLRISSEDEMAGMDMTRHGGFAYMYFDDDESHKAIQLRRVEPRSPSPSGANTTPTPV

[3] = target: T3, sucrose transporter P62 (StSUT1) (Solanum tuberosum, UniProt Q43653); assay: [14C]-sucrose uptake by yeast strain SUSY-7-P62 (StSUT1) expressing the potato sucrose transporter; format: cell-based; details: [14C]-sucrose uptake, pH 3.8
T3 construct: whole-cell [14C]-sucrose uptake; no tag or borders given
T3 sequence (Q43653 1-516): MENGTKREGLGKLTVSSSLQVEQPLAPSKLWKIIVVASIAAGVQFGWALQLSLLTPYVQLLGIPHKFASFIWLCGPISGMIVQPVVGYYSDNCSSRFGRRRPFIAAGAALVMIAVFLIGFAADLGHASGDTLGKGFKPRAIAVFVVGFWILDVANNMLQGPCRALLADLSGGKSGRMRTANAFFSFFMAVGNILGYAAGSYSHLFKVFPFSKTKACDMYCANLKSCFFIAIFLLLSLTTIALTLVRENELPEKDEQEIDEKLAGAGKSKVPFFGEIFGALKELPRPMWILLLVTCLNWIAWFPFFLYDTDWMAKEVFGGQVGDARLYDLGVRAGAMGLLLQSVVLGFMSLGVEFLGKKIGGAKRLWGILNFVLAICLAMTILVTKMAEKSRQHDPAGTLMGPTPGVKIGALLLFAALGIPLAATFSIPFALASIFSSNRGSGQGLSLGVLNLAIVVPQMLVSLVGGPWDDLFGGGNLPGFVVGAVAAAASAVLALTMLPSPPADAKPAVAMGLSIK
Text: Yeast cells of the strain SUSY7 (Riesmeier et al., 1992, EMBO J. 11: 4705-4713) are used to identify substances which have an inhibitory effect on sucrose transporters from potato. Cells of this strain are transformed with a cDNA sequence which codes for the sucrose transporter P62 (StSUT1) from potato (WO 94/00574, Riesmeier et al., 1993, Plant Cell 5:1591-1598) and which ensures expression of a functional transporter in the cells. The resulting yeast strain was called SUSY-7-P62 (StSUT1). The yeast cells are cultured in minimal medium (SD +2% (w/v) sucrose, pH 3.8) at 28° C. and harvested in the logarithmic phase (OD600 =0.6). The cells are spun down at 4000 rpm for 10 minutes and washed twice with SD medium. A cell concentration of c=50 g/l in SD medium is adjusted according to the wet weight of the cells, and 200 Al aliquot fractions are taken. Before the actual reaction, the cells are incubated in 10 mM glucose for 5 min and adjusted to pH 3.8 with MES buffer. The reaction is started by adding 200 Al of a 0.2 mmol/l [14C]-sucrose solution (3 mCi/mmol) in SD medium (pH 3.8). After 20, 60, 120, 180 and 240 seconds, 70 μl portions of the suspension are removed and pipetted into 4 ml of ice-cold water in order to stop the reaction. The cells are filtered off on glass fiber filters and washed twice with ice-cold water. The radioactivity on the filters is subsequently determined in a liquid scintillation counter. The substances to be tested are added 30 seconds before addition of the sucrose. The uptake of radiolabeled sucrose without addition of a potential inhibitor is determined as one control. Cells of the strain SUSY7 which are not transformed with cDNA sequences coding for a sucrose transporter from potato are employed as further control.
The various tested substances, their concentration and the activity of the transporter, shown as percentage activity of the control in which no potential inhibitors were added, are indicated.

[4] = [14C]-methylamine uptake, tested substance 500 μM
[5] = tested substance 2 mM, read-out: Activity relative to the control [%]
[6] = pH 7, read-out: Activity relative to the control [%]

remaining activity at 2000 µM ([1]; tested substance 2 mM): 97.2%
Compound: OC[C@H]1O[C@@](CO)(O[C@H]2O[C@H](CO)[C@@H](O)[C@H](O)[C@H]2O)[C@@H](O[C@H]2O[C@H](CO)[C@@H](O)[C@H](O)[C@H]2O)[C@@H]1O [Melizitose]

Compound: CN(C)C [Trimethylamine]
remaining activity at 500 µM ([2]; pH 7, [14C]-methylamine uptake, tested substance 500 μM, read-out: Activity relative to the control [%]): 89%

remaining activity at 1000 µM [1]: 0%
Compound: NC1CC(CO)C(O)C1O (stereo not shown)

Compound: Cl.N [NH4 Cl]
Activity relative to the control [%] [2, 4]: 10%

Compound: CCN1C(=O)C=CC1=O [N-Ethylmaleimide]
remaining activity at 1000 µM ([3]; tested substance 1 mM, read-out: Activity relative to the control [%]): 22%

Activity relative to the control [%] ([1]; tested substance 2 mM): 8.0%
Activity relative to the control [%] ([3]; tested substance 2 mM): 7%
Compound: OC[C@H]1O[C@H](Oc2ccccc2)[C@H](O)[C@@H](O)[C@@H]1O [α-Phenylglucose]

Compound: [Cl-].[Cs+] [CsCl]
Activity relative to the control [%] [2, 4]: 98%

remaining activity at 2000 µM ([1]; tested substance 2 mM): 110%
remaining activity at 2000 µM [3, 5]: 110%
Compound: OC[C@H]1O[C@H](OC[C@H]2O[C@H](O[C@]3(CO)O[C@H](CO)[C@@H](O)[C@@H]3O)[C@H](O)[C@@H](O)[C@@H]2O)[C@H](O)[C@@H](O)[C@H]1O [Raffinose]

remaining activity at 1000 µM [1]: 0%
Compound: Nc1ncnc2c1ncn2C1CC=CC1CO (stereo not shown)

Compound: C[C@@H]1C[C@@H]([C@H](O)CC2CC(=O)NC(=O)C2)C(=O)[C@@H](C)C1 [Cycloheximide]
remaining activity at 10 µg/mL [2, 6]: 85%

Compound: Antimycin A
Activity relative to the control [%] ([2]; [14C]-methylamine uptake, tested substance 10 μg/ml): 8%

Compound: CNC [Dimethylamine]
remaining activity at 500 µM [2, 6]: 89%

Compound: OC[C@H]1O[C@@H](O[C@H]2[C@H](O)[C@@H](O)[C@H](O)O[C@@H]2CO)[C@H](O)[C@@H](O)[C@H]1O [β-Lactose]
remaining activity at 2000 µM ([1]; tested substance 2 mM): 94.9%
remaining activity at 2000 µM [3, 5]: 91%
